# Entries after “also recorded” stand apart in the source; their conditions may differ.
# Tests used:
# [1] = tested on: inflammatory genes, matrix proteins, adhesion molecules and neuropeptides in TMJ tissues; assay: qRT-PCR analysis of gene expression in TMJ tissues of the CFA model; type: in vivo, rat
# Procedure: To see if this reduction in inflammation and its associated damage could provide therapeutic benefit, the ability of PFI-2 to reduce inflammatory pain was examined. Animals were injected with saline or CFA and meal duration, a proxy for pain, was examined over a span of 21 days post-injection. […] Calcitonin gene-related peptide (CGRP) localization and expression in the synovial membrane were examined by immunostaining, where it was observed that CGRP was localization in synovial cells and neurons was increased in animals treated with CFA (FIG. 4C and FIG. 4D).
# Expression of Osteogenic, Chondrogenic and Inflammatory Genes in a TMD model: To generate benchmark data for functional and mechanistic studies TMJ discs, synovia, and condyles are dissected and mRNA and protein expression levels of bone marker genes measured, including collagen type I (Col I), alkaline phosphatase (Alp), Runx2, Osterix (Osx), osteocalcin (Ocn), and bone sialoprotein (Ibsp), as well as cartilage marker genes such as collagen II, Sox 9, Col X, and biglycans. To characterize the effect of the YAP upregulator PFI-2 on inflammation and osteoclast formation, the expression of inflammatory cytokines (IL-1b, IL-6, TNF-α), NF-κB, MMPs (MMP2, MMP9 and MMP13), adhesion molecules (CDH11, ICAM, Integrin β1), and osteoclastogenesis-related genes (Rank, Rankl, Opg, Trap5b, and NFATc1) is detected using quantitative RT-PCR and Western blotting as described by Walker et al. (2010). Localization of these genes in the inflamed TMJ is further specified using immunofluorescence.
# Inflammatory Changes in the Expression of Neuropeptides CGRP, NPY and SP1 in vivo and in vitro: For in vivo studies, rat TMJ discs, synovial membrane, condyle, trigeminal ganglia and trigeminal nucleus caudalis are collected bilaterally from saline-or CFA-treated rats for RNA and protein isolation, and histological analysis. The expression of CGRP, NPY, TAC1, and Galanin (GAL) at gene and protein levels are measured using qRT-PCR and Western blotting. For histology, tissues are fixed in 4% paraformaldehyde and prepared for paraffin sections as described previously (Lu et al, 2016a, b). Cells and neurons positive for CGRP, NPY, SP1 (an isoform of TAC1 protein) and Gal are visualized via immunofluorescence or immunohistochemistry using antibodies against CGRP, GAL, NYP, and TAC1 (Abcam). Expression levels of these genes and the numbers of immunoreactive cells are compared between different treatment groups.
# TMJ tissues = assay: CFA injection rat model of inflammatory TMD: swelling, uCT and histology of TMJ tissues; type: in vivo
# inflammatory TMD pain = assay: Place escape/avoidance paradigm (PEAP) pain behavior in inflammatory TMD model; type: in vivo, rat; settings: for time spent in the dark half of the PEAP chamber: CFA plus PFI-2 injection
# Procedure: Effect of PFI-2 Mediation on Inflammatory Conditions and Pain: Tmj pain is assessed as meal duration and via Place Escape Avoidance Paradigm (PEAP)-based measures (FIG. 1, Vertebrate Justification section). Testing is performed in both male and female rats as sex differences have been observed in humans and animals. Female animals are tested for the estrous cycle and the results are reported for the di-estrus, estrus, and pro-estrus phases (Kramer, Bellinger, 2009).
# Peap Testing: the Chamber Used for the Place Escape Avoidance Paradigm (PEAP) testing is a 30 cm×30 cm acrylic box in which half the box is covered in black cloth. Each individual rat is placed into the chamber; due to their nocturnal circadian rhythm, rodents prefer the dark side of the chamber. Rats on the dark side of the chamber receive a stimulus at the injected side, whereas rats with their head on the clear side of the chamber are stimulated on the contralateral non-injected side with a 60 g filament every 15 seconds. The stimulus is administered below the eye and caudal to the whisker pad. The time spent on the dark side of the box is recorded in 5 min bins, testing is performed for a total of 30 min on the test day and thereafter on a one day a week basis for 8 weeks as previously described (Stinson et al. 2017; 2019).
# Injection of PFI-2-Col I, PFI-2-decm Hydrogel and PFI-2-exosome solution into the TMJ: Four groups (SV, SP, CV, and CP) receive injections of the saline plus carrier, saline plus PFI-2 carrier, CFA plus carrier, or CFA plus PFI-2 carrier, respectively. The TMJ injection procedure is described in FIG. 1. Forty-eight hours after the injection of saline or CFA solution, PFI-2 (10 μM) in a carrier, or the carrier alone, is injected every two days, or once within 10 days. The injection times and effect duration of PFI-2 on both inflammatory degeneration and pain are optimized.
# PEAP behavior of animals was investigated after administration of saline, CFA, or CFA and a PFI-2 carried by either a Col I hydrogel or a dECM hydrogel.
smiles,measurement,setting,value
O=C([C@@H](Cc1cccc(C(F)(F)F)c1)NS(=O)(=O)c1cc(F)c2c(c1)CCNC2)N1CCCC1 [PFI-2],"expression of CGRP, NPY and TAC in TMJ tissues (qRT-PCR)",[1]; CFA-PFI-treated (CP) vs CFA-treated (CV),reduced to near-normal levels
same,"expression of CGRP, NPY and TAC in TMJ tissues (qRT-PCR)","[1]; CFA-PFI-treated (CP) vs CFA-treated (CV), listed as PFI",almost reduced to normal levels
same,inflammatory gene / cytokine expression in TMD tissues (qRT-PCR),"[1]; rats, CFA model",inhibited the expression of inflammatory cytokines; also recorded: downregulated inflammatory gene expression
same,matrix protein and adhesion molecule expression in TMJ tissues (qRT-PCR),"[1]; rats, CFA-PFI-treated (CP) vs CFA-treated (CV)",reversed the upregulation
same,inflammation-induced retardation of chondrocyte differentiation / condylar growth plate structure,TMJ tissues; PFI-2 injected following CFA induction of inflammatory conditions,able to reverse it; also recorded: restored condyle growth plate structure and function; also recorded: reversed
same,"bone volume, mechanical properties and thickness of functional condyle layers","TMJ tissues; inflammatory conditions, three PFI-2 delivery modalities",restores outcomes to near-physiological values
same,regional swelling / distance between the two ear tragi,"TMJ tissues; rats, 48 hours after injection, CFA-induced (10% increase with CFA)",no swelling was observed
same,collagen fibers in the TMJ disc (Pico Sirius red staining),"TMJ tissues; rats, CFA model","lightened; also recorded: conversion to light red, thinner fibers"
same,structure and function of fibrocartilage in the TMJ (H&E),"TMJ tissues; rats, CFA model",rescued the structure and function of fibrocartilage
same,thickness of the fibrous and proliferative cell layers / hypertrophic zones (H&E),"TMJ tissues; rats, CFA model",rescued; also recorded: reduced
same,TMJ disc thickening and fusion with the condyle (H&E),"TMJ tissues; rats, CFA model, paraffin-embedded TMJ tissues",rescued; also recorded: detachment of the TMJ disc and condyle
same,condylar bone volume and joint space between temporal fossa and condyle (uCT),"TMJ tissues; rats, CFA plus PFI-2 injection",rescued
same,fibrous adhesion of TMJ disc and condylar surface (Masson trichrome),"TMJ tissues; rats, CFA-induced inflammation",prevented the attachment; also recorded: released fibrous adhesion; also recorded: de-attached the TMJ disc from the condyle
same,time spent in the dark half of the PEAP chamber,inflammatory TMD pain; collagen gel (Col I hydrogel) as carrier,significantly rescued; also recorded: significantly increased
same,time spent in the dark half of the PEAP chamber,"inflammatory TMD pain; dECM hydrogel as carrier, compared with collagen carrier",far more significant; also recorded: further improved
same,inflammatory pain,inflammatory TMD pain; inflammatory TMD model,greatly reduced pain; also recorded: reduction in inflammatory pain; also recorded: reduced inflammatory pain
same,time on the dark side of PEAP chambers,inflammatory TMD pain; mice subjected to inflammatory temporo-mandibular joint pain,dramatically reduced time
